Reference: US7014839B2, “Light imaging contrast agents” (Amersham Health AS, priority 1995, dated 2006)
Marks after values point to notes of the source that are not given here.

Legend:
[1] = Average particle size of milled nanoparticle suspensions (light scattering); conditions: for average particle size: light scattering
Protocol: WIN 70146 (an iodinated X-ray contrast agent prepared according to Example 23 below) was added to each of 3×1.5 oz brown glass bottles containing approximately 12 ml of zirconium silicate, 1.1 mm diameter beads in an amount sufficient to be 15% (wt/vol %) of the final suspension. Bottle A was also made 3% (wt/vol %) Pluronic F-68 while bottle B was made 3% (wt/vol %)) Pluronic F-108 and bottle C was made 3% (wt/vol %) Tetronic T-908. The resulting suspensions were milled at approx 150 rpm for a total of 9 days with estimates of particle size determined at various intervals as detailed below.
WIN 70146 was milled with 1.1 mm diameter zirconium silicate beads for 3 days under aseptic conditions. The concentration of this agent was 15% WIN 70146 in the presence of 4% Pluronic F-108. No additional salts or surfactants were added.
WIN 70146 was milled with 1.1 mm diameter zirconium silicate beads in the presence of Pluronic F-108 for 3 days. […] At this point, sterile PEG 400 was added to the suspension such that at completion, the formulation contained 15% (wt/vol %) WIN 70146, 3% (wt/vol %) Pluronic F-108 and 10% PEG 400.
(§1) This suspension was then diluted in water to various levels listed below. The percent of incident light transmitted was then determined for each suspension at several wavelengths (see below). The suspensions were then dissolved by addition of methanol and examined for percent transmitted light against an equivalent solvent blank.
A formulation of WIN 70177 (an iodinated X-ray contrast agent prepared according to Example 24) was prepared as 15 gm of WIN 70177/100 ml of suspension and 4.25-gm of Pluronic F108/100 ml of suspension and 10 gm of PEG 400/100 ml of suspension.
A formulation of WIN 67722 (an iodinated X-ray contrast agent as described in U.S. Pat. No. 5,322,679) was prepared as in Example 1 using 3% Pluronic F108 and 15% PEG 1450.
as §1

[2] = Residence within the vasculature after injection; type: in vivo; conditions: nanoparticles
Protocol: WIN 72115 was designed to be excited with incident radiation from an Argon Ion laser (in the green, near 514 nm) and emit light at wavelengths above that value. Thus, after injection, illumination of the patient with green light would stimulate emission of light of a slightly different wavelength that could be used for diagnostic purposes. The key features of this agent are that it can be prepared as nanoparticles, remain within the vasculature for greater than 15 minutes, provide both scattering and fluorescence contrast for light imaging. In place of WIN 72115, the photolabelled agent of Example 22 below may be used.

[3] = Percent of incident light transmitted by diluted nanoparticle suspension and by methanol-dissolved agent; type: physicochemical; conditions: for % T suspension 632 nm / % T suspension 700 nm / % T suspension 800 nm / % T suspension 820 nm: nanoparticle suspension
Text: The results are given below.

[4] = Stability testing in fresh rat plasma; type: physicochemical; conditions: nanoparticle suspension, F108/PEG 400
Protocol: (§2) A formulation of WIN 70177 (an iodinated X-ray contrast agent prepared according to Example 24) was prepared as 15 gm of WIN 70177/100 ml of suspension and 4.25-gm of Pluronic F108/100 ml of suspension and 10 gm of PEG 400/100 ml of suspension. The suspension was milled for 5 days after which the average particle size was determined by light scattering to be about 235 nm.

[5] = Stability testing in simulated gastric fluid; type: physicochemical; conditions: nanoparticle suspension, F108/PEG 400
Protocol: as §2

[6] = Absorbance vs wavelength of dissolved and nanoparticle agent; type: physicochemical; conditions: above 600 nm; for Absorbance vs wavelength of dissolved agent: dissolved (methanol); for Absorbance vs wavelength of nanoparticle agent: particulate suspension
mice = tested on: mice
Protocol: WIN 70146 was prepared as in Example 10 and injected into the tail vein of mice at doses of 3 ml/kg, 15 ml/kg, and 30 ml/kg (ie. 0.45 gm/kg, 2.25 gm/kg and 4.5 gm/kg).

[7] = methanol added, 0.150%, not fully dissolved
[8] = methanol added, 0.300%, not fully dissolved
[9] = 3% Pluronic F108, 15% PEG 1450, milled 3 days, Coulter N4MD

SMILES | % T solution 632 nm ([3]; dissolved by methanol, 0.015%) [%] | % T solution 700 nm ([3]; dissolved by methanol, 0.015%) [%] | % T solution 632 nm ([3]; dissolved by methanol, 0.0375%) [%] | % T solution 700 nm ([3]; dissolved by methanol, 0.0375%) [%] | % T solution 632 nm ([3]; dissolved by methanol, 0.075%) [%] | % T solution 700 nm ([3]; dissolved by methanol, 0.075%) [%] | % T solution 632 nm [3, 7] | % T solution 700 nm [3, 7] | % T solution 632 nm [3, 8] | % T solution 700 nm [3, 8] | % T suspension 632 nm ([3]; 0.015%) [%] | % T suspension 700 nm ([3]; 0.015%) [%] | % T suspension 632 nm ([3]; 0.0375%) [%] | % T suspension 700 nm ([3]; 0.0375%) [%] | % T suspension 632 nm ([3]; 0.075%) [%] | % T suspension 700 nm ([3]; 0.075%) [%] | % T suspension 632 nm ([3]; 0.150%) [%] | % T suspension 700 nm ([3]; 0.150%) [%] | % T suspension 632 nm ([3]; 0.300%) [%] | % T suspension 700 nm ([3]; 0.300%) [%] | also measured
CCOC(=O)c1c(I)c(NS(=O)(=O)c2cccc3c(N(C)C)cccc23)c(I)c(N(CC)C(C)=O)c1I [WIN 72115, 3-(N-Acetyl-N-ethylamino)-5-[(5-dimethylamino-1-naphthylsulfonyl)amino]-2,4,6-triiodobenzoic Acid Ethyl Ester] |  |  |  |  |  |  |  |  |  |  |  |  |  |  |  |  |  |  |  |  | average particle size ([1]; 15 gm agent and 3 gm Pluronic F108 per 100 ml): 225 nm; Time remaining within the vasculature [2]: greater than 15 minutes; melting point: 238 to 240 °C
CC(=O)Nc1c(I)c(NC(C)=O)c(I)c(C(=O)OCC(C(=O)OC(C)C)C(=O)OC(C)C)c1I [WIN 70177, Propanedioic Acid, [[3,5-bis(acetylamino)-2,4,6-triiodobenzoyl]oxy]methyl-bis(1-methylethyl)ester] | 102.2 | 101.9 | 102.3 | 101.9 | 100.9 | 100.8 | 59.5* % | 67.8* % | 7.4* % | 14.4* % | 53.3 | 62.8 | 34.6 | 45.7 | 25.8 | 36.8 | 6.7 | 13.6 | 0.1 | 0.6 | average diameter after autoclaving ([1]; 4.25% F108/10% PEG 400): 236 nm; average particle size ([1]; 15 gm agent, 4.25 gm Pluronic F108, 10 gm PEG 400 per 100 ml, milled 5 days): about 235 nm; % T solution 800 nm ([3]; dissolved by methanol, 0.015%): 101.8%; % T solution 800 nm ([3]; dissolved by methanol, 0.0375%): 101.8%; % T solution 800 nm ([3]; dissolved by methanol, 0.075%): 101.0%; % T solution 800 nm [3, 7]: 77.0* %; % T solution 800 nm [3, 8]: 26.8* %; % T suspension 800 nm ([3]; 0.015%): 73.1%; % T suspension 800 nm ([3]; 0.0375%): 59.1%; % T suspension 800 nm ([3]; 0.075%): 51.1%; % T suspension 800 nm ([3]; 0.150%): 26.3%; % T suspension 800 nm ([3]; 0.300%): 3.2%; Aggregation in fresh rat plasma [4]: did not show any aggregation; Aggregation in simulated gastric fluid [5]: did not show any aggregation; Absorbance vs wavelength of dissolved agent [6]: has virtually no absorbance at all even at 5 times the concentration; Absorbance vs wavelength of nanoparticle agent [6]: provides an exponential drop in absorbance with wavelength
CCCCC(OC(=O)c1c(I)c(NC(C)=O)c(I)c(NC(C)=O)c1I)C(=O)OCC (centres unmarked) [WIN 70146, Benzoic Acid, 3,5-bis(acetylamino)-2,4,6-triiodo-1-(ethoxycarbonyl)pentyl ester] | 100.4 | 100.3 | 99.9 | 99.9 | 99.9 | 99.8 | 41.4* % | 51.9* % | 1.2* % | 4.0* % | 54.7 | 64.5 | 25.4 | 36.6 | 7.7 | 15.4 | 0.5 | 1.9 | 0.0 | 0.1 | average diameter after autoclaving ([1]; 4.25% F108/10% PEG 400): 228 nm; average particle size ([1]; 15% WIN 70146, 4% Pluronic F-108, milled 3 days): 162 nm; final particle size after autoclaving ([1]; 15% agent, 3% Pluronic F-108, 10% PEG 400, 121 degrees C. for 20 min): 248 nm; final particle size after milling ([1]; Pluronic F-108, milled 3 days, before PEG 400 and autoclaving): 235 nm; Stability to heat and shelf time of nanoparticle suspension ([1]; in F108 and T908, autoclaving, time on the shelf): excellent stability to heat (autoclaving) and time on the shelf; Untoward effects (mice; tail vein, 3, 15 and 30 ml/kg (0.45, 2.25, 4.5 gm/kg), 7 days): No untoward effects were noted; Gross observation after sacrifice (mice; tail vein, 3-30 ml/kg, after 7 days): did not reveal any obvious lesions or disfigurations; % T solution 820 nm ([3]; dissolved by methanol, 0.015%): 100.5%; % T solution 820 nm ([3]; dissolved by methanol, 0.0375%): 99.9%; % T solution 820 nm ([3]; dissolved by methanol, 0.075%): 99.9%; % T solution 820 nm [3, 7]: 66.2* %; % T solution 820 nm [3, 8]: 13.5* %; % T suspension 820 nm ([3]; 0.015%): 77.0%; % T suspension 820 nm ([3]; 0.0375%): 53.8%; % T suspension 820 nm ([3]; 0.075%): 31.8%; % T suspension 820 nm ([3]; 0.150%): 8.6%; % T suspension 820 nm ([3]; 0.300%): 0.8%; Absorbance vs wavelength of dissolved agent [6]: does not show any evidence of light absorbance from 600 to 800 nm; Absorbance vs wavelength of nanoparticle agent [6]: shows a classic absorbance decay due to scattering of the incident light
CCOC(=O)CCCCCOC(=O)c1c(I)c(NC(C)=O)c(I)c(NC(C)=O)c1I [WIN 67722] | 99.9 | 99.9 | 100.2 | 100.2 | 100.1 | 100.2 | 48.2* % | 55.3* % | 1.3* % | 3.5* % | 47.9 | 57.1 | 20.5 | 29.9 | 4.8 | 9.9 | 0.2 | 1.0 | 0.0 | 0.0 | average diameter after autoclaving ([1]; 3% Pluronic F108, 15% PEG 1450): 214 nm; particle size [1, 9]: 213 nm; particle size, small fraction [1, 9]: 537 nm; % T solution 820 nm ([3]; dissolved by methanol, 0.015%): 100.6%; % T solution 820 nm ([3]; dissolved by methanol, 0.0375%): 100.4%; % T solution 820 nm ([3]; dissolved by methanol, 0.075%): 100.4%; % T solution 820 nm [3, 7]: 65.5* %; % T solution 820 nm [3, 8]: 10.7* %; % T suspension 820 nm ([3]; 0.015%): 69.2%; % T suspension 820 nm ([3]; 0.0375%): 45.6%; % T suspension 820 nm ([3]; 0.075%): 22.1%; % T suspension 820 nm ([3]; 0.150%): 4.9%; % T suspension 820 nm ([3]; 0.300%): 0.2%; Absorbance vs wavelength of dissolved agent [6]: has virtually no absorbance at all even at 5 times the concentration; Absorbance vs wavelength of nanoparticle agent [6]: provides an exponential drop in absorbance with wavelength
